We go through 36 compounds from patent publication US11208404B2 (PERENNA PHARMACEUTICALS, INC., priority 2017, dated 2021).

Structures are written as SMILES. Where two headings read alike, the source gives them in different places.

The assay deals with ALCAT1 (Homo sapiens (Human), UniProt Q6UWP7). Description: In vitro acyltransferase assay for ALCAT1 inhibitors. The conditions noted are these: for inhibition at 1 µM / % inh @ 1 μM: 1 μM compound; for inhibition at 1 µM / inhibition at 10 µM / % inh @ 1 μM: in vitro enzymatic assay; for inhibition at 10 µM: 10 μM compound; for IC50: ALCAT1 enzyme activity. In kind it is biochemical. The source says:
The human ALCAT1 protein were expressed in Spodoptera frugiperda (Sf9) insect cells by using a Bac-to-Bac baculovirus expression system (Invitrogen) according to the manufacturer's instruction. High-titer recombinant baculovirus expressing the human ALCAT1 protein was generated by several rounds of viral amplification. The Sf9 cells were typically infected with recombinant baculovirus for 3 days, harvested in ice-cold phosphate-buffered saline (PBS), and homogenized in 20 mm NaCl by going through French press. The total cell lysates were centrifuged at 10,000×g for 1 hours at 4° C. to eliminate the nucleus fraction, followed by ultracentrifugation at 100,000×g to pallet the membrane fraction. The membrane fraction was resuspended in enzymatic buffer that contain 10% glycerol, quantified for protein concentration, aliquoted, and stored at −80° C.
ALCAT1 enzymatic activity was determined by measuring the conversion of monolysocardiolipin (MLCL) to cardiolipin or lysophosphatidylglycerol (LPG) to phosphatidylglycerol (PG) in an enzymatic reaction mixture that contained 50 mm Tris/HCl, pH 7.0, 100 μm lysophospholipids, 25 μm [^14C]acyl-CoA (50 mCi/mmol, American Radiolabeled Chemicals, Inc), and membrane fraction (0.5-2.5 μg) in a total volume of 200 μl. The reaction was incubated at room temperature for 30 min. The lipids were extracted will chloroform, dried, and separated by thin layer chromatography (TLC) with chloroform:hexane:methanol:acetic acid (50:30:10:5, v/v) or chloroform:methanol:water (65:25:4, v/v). After separation, TLC plates were exposed to a Phosphorlmager screen to visualize the radiolabeled products with a Molecular Dynamics Typhoon Scanner (Sunnyvale, Calif.). In some experiments, NBD-CoA was used at 100 μM to replace the [^14C]acyl-CoA in the enzymatic reaction. All quantitative data were expressed as mean±S.E. Statistical analyses for differences between two groups were carried out using a Student's t test.
Compound inhibitors for ALCAT1 enzyme were analyzed by an in vitro enzymatic assay as detailed above. Compound inhibitors were added to the enzymatic mixture at 1-20 μM concentrations before the start of the acyltransferase reaction.
Where multiple measurements were taken this is indicated by a “/” between multiple values.
IC50 values for each compound were analyzed in triplicates, and calculated by GraphPad software.

[1] abbreviates: triplicates, GraphPad, read-out: IC50.

ALCAT1, sequence (Q6UWP7 whole entry): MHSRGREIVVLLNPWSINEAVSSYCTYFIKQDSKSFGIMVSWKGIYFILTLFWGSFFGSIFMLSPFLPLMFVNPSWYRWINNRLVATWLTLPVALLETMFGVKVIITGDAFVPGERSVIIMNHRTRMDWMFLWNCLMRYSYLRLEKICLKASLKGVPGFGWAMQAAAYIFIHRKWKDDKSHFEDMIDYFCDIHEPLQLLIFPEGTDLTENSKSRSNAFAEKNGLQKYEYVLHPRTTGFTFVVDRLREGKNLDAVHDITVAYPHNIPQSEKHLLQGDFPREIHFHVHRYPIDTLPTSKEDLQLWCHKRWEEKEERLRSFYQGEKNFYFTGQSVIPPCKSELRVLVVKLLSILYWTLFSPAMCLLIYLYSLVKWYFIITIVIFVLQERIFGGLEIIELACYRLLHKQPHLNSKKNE

For `CC(=O)Nc1ccccc1C(=O)Nc1cccc(-c2nnc(-c3ccco3)o2)c1` [Compound 172], the inhibition at 1 µM stood at 6% and at 10 µM the inhibition was 26%.

`CCOc1ccccc1C(=O)Nc1cccc(-c2nnc(-c3ccco3)o2)c1` [Compound 174] displayed an inhibition at 1 µM of 96% and an inhibition at 10 µM of 100%. Besides, the IC50 under setting [1] is 0.11 µM.

As for `CCCOc1ccccc1C(=O)Nc1cccc(-c2nnc(-c3ccco3)o2)c1` [Compound 175], the inhibition at 1 µM amounted to 90% and at 10 µM the inhibition was 100%. Further, under setting [1], the IC50 amounted to 0.15 µM.

In turn, `Cc1ccc(F)c(C(=O)Nc2cccc(-c3nnc(-c4ccco4)o3)c2)c1` [Compound 176] had an inhibition at 1 µM of 73% and an inhibition at 10 µM of 100%. Besides, the concentration for half-maximal inhibition (IC50) under setting [1] stood at 0.22 µM.

On to `O=C(Nc1cccc(-c2nnc(-c3ccco3)o2)c1)c1ccc2c(c1)OCO2` [Compound 177], for which testing at 1 µM gave an inhibition of 3% and 10 µM produced 1% inhibition.

In turn, `O=C(Nc1cccc(-c2nnc(-c3ccco3)o2)c1)c1cccc2c1OCO2` [Compound 178] showed an inhibition at 1 µM of 27%.

In the case of `COc1cccc(F)c1C(=O)Nc1cccc(-c2nnc(-c3ccco3)o2)c1` [Compound 179], the inhibition at 1 µM worked out at 17% and the inhibition at 10 µM was found to be 41%.

Compound `CSc1ccccc1C(=O)Nc1cccc(-c2nnc(-c3ccco3)o2)c1` [Compound 181] returned an inhibition at 1 µM of 34% and an inhibition at 10 µM of 68%.

`COc1c(C)cccc1C(=O)Nc1cccc(-c2nnc(-c3ccco3)o2)c1` [Compound 182] registered an inhibition at 1 µM of 33%.

With `O=C(Nc1cccc(-c2nnc(-c3ccco3)o2)c1)c1cccc(Cl)c1F` [Compound 186], testing at 1 µM gave an inhibition of 92% and 10 µM produced 100% inhibition. Further, under setting [1], the half-maximal inhibitory concentration (IC50) is 0.39 µM.

With `O=C(Nc1cccc(-c2nnc(-c3ccco3)o2)c1)c1cc(Br)ccc1F` [Compound 188], 1 µM produced 93% inhibition and the inhibition at 10 µM was found to be 100%. Further, the IC50 under setting [1] turned out to be 0.64 µM.

`O=C(Nc1cccc(-c2nnc(-c3ccco3)o2)c1)c1cc(Cl)ccc1F` [Compound 189] had an inhibition at 1 µM of 92% and an inhibition at 10 µM of 100%. In addition, under setting [1], the 50% inhibitory concentration (IC50) came to 0.32 µM.

Compound `Cc1cccc(C(=O)Nc2cccc(-c3nnc(-c4ccco4)o3)c2)c1F` [Compound 190] showed an inhibition at 1 µM of 80% and an inhibition at 10 µM of 100%. Further, the half-maximal inhibitory concentration (IC50) under setting [1] amounted to 0.29 µM.

The compound `O=C(Nc1cccc(-c2nnc(-c3ccco3)o2)c1)c1cccc(Br)c1F` [Compound 191] came in with an inhibition at 1 µM of 82% and an inhibition at 10 µM of 100%. Further, under setting [1], the half-maximal inhibitory concentration (IC50) was determined as 0.33 µM.

`COc1c(Br)cccc1C(=O)Nc1cccc(-c2nnc(-c3ccco3)o2)c1` [Compound 192, 3-Bromo-N-(3-(5-(furan-2-yl)-1,3,4-oxadiazol-2-yl)phenyl)-2-methoxybenzamide]: the “% inh @ 1 μM” value amounted to 93% and testing at 1 µM gave an inhibition of 89%. The IC50 under setting [1] is 0.092 µM.

For `COc1c(Cl)cccc1C(=O)Nc1cccc(-c2nnc(-c3ccco3)o2)c1` [Compound 193, 3-Chloro-N-(3-(5-(furan-2-yl)-1,3,4-oxadiazol-2-yl)phenyl)-2-methoxybenzamide], the inhibition at 1 µM came out at 92% and testing at 10 µM gave an inhibition of 90%. In addition, under setting [1], the half-maximal inhibitory concentration (IC50) was determined as 0.067 µM.

`O=C(Nc1cccc(-c2nnc(-c3ccco3)o2)c1)c1cc(F)ccc1F` [Compound 195] had an inhibition at 1 µM of 70% and an inhibition at 10 µM of 88%. In addition, the IC50 under setting [1] was determined as 0.36 µM.

`O=C(Nc1cccc(-c2nnc(-c3ccco3)o2)c1)c1cccc(F)c1F` [Compound 196] came in with an inhibition at 1 µM of 68% and an inhibition at 10 µM of 97%. Further, under setting [1], the half-maximal inhibitory concentration (IC50) came out at 0.34 µM.

As to `COc1ccc(C)cc1C(=O)Nc1cccc(-c2nnc(-c3ccco3)o2)c1` [Compound 197, N-(3-(5-(Furan-2-yl)-1,3,4-oxadiazol-2-yl)phenyl)-2-methoxy-5-methylbenzamide], the inhibition at 1 µM is 80% and the inhibition at 10 µM is 97%. Besides, under setting [1], the IC50 was 0.079 µM.

With `O=C(Nc1cccc(-c2nnc(-c3ccco3)o2)c1)c1cccc(Br)c1` [Compound 203], the half-inhibitory concentration (IC50) under setting [1] amounted to 1.9 µM.

As for `CCCOc1ccc(C)cc1C(=O)Nc1cccc(-c2nnc(-c3ccco3)o2)c1` [Compound 207], the “% inh @ 1 μM” value is reported as 87% and the inhibition at 1 µM worked out at 86%. For the same compound, the IC50 under setting [1] amounted to 0.19 µM.

With `O=C(Nc1cccc(-c2nnc(-c3ccco3)o2)c1)c1cc(OC(F)(F)F)ccc1F` [Compound 211, 2-Fluoro-N-(3-(5-(furan-2-yl)-1,3,4-oxadiazol-2-yl)phenyl)-5-(trifluoromethoxy)benzamide], the “% inh @ 1 μM” value came out at 97% and the inhibition at 1 µM is 95%. Also, the IC50 under setting [1] is 0.096 µM.

Turning to `O=C(Nc1cccc(-c2nnc(-c3ccco3)o2)c1)c1ccc2occc2c1` [Compound 212], the inhibition at 1 µM is 26%.

Take `CCCCOc1ccccc1C(=O)Nc1cc(-c2nnc(-c3ccco3)o2)ccc1F` [Compound 213]: the “% inh @ 1 μM” value turned out to be 64% and the inhibition at 1 µM came to 56%.

As to `COc1ccc(F)c(C(=O)Nc2cccc(-c3nnc(-c4ccco4)o3)c2)c1` [Compound 214], the “% inh @ 1 μM” value turned out to be 76% and 1 µM produced 67% inhibition.

In the case of `CCOc1ccccc1C(=O)Nc1cc(-c2nnc(-c3ccco3)o2)ccc1F` [Compound 215, 2-Ethoxy-N-(2-fluoro-5-(5-(furan-2-yl)-1,3,4-oxadiazol-2-yl)phenyl)benzamide], the “% inh @ 1 μM” value is reported as 100/100% and the inhibition at 1 µM was found to be 100%. Also, the concentration for half-maximal inhibition (IC50) (read-out: IC50 values (upper bounds)) is under 0.1 µM. Besides, under setting [1], the IC50 came out at 0.026 µM.

As to `CC(C)COc1ccccc1C(=O)Nc1cccc(-c2nnc(-c3ccco3)o2)c1` [Compound 217], the “% inh @ 1 μM” value amounted to 68% and 1 µM produced 69% inhibition.

As to `CCOc1ccc(C)cc1C(=O)Nc1cccc(-c2nnc(-c3ccco3)o2)c1` [Compound 218, 2-Ethoxy-N-(3-(5-(furan-2-yl)-1,3,4-oxadiazol-2-yl)phenyl)-5-methylbenzamide], the “% inh @ 1 μM” value amounted to 98% and the inhibition at 1 µM is 99%. In addition, the IC50 under setting [1] was determined as 0.067 µM.

For `COc1c(F)cccc1C(=O)Nc1cccc(-c2nnc(-c3ccco3)o2)c1` [Compound 220], the “% inh @ 1 μM” value is reported as 94% and 1 µM produced 96% inhibition. In addition, the 50% inhibitory concentration (IC50) under setting [1] is 0.12 µM.

Regarding `O=C(Nc1cccc(-c2nnc(-c3ccco3)o2)c1)c1ccccc1OCC(F)(F)F` [Compound 223], the “% inh @ 1 μM” value amounted to 90% and the inhibition at 1 µM stood at 94%. The half-maximal inhibitory concentration (IC50) under setting [1] was 0.15 µM.

On to `Cc1ccc(OCC(F)(F)F)c(C(=O)Nc2cccc(-c3nnc(-c4ccco4)o3)c2)c1` [Compound 224], for which the “% inh @ 1 μM” value stood at 97% and at 1 µM the inhibition was 91%. Under setting [1], the IC50 was 0.19 µM.

On to `O=C(Nc1cccc(-c2nnc(-c3ccco3)o2)c1)c1cc(Cl)ccc1OCC(F)(F)F` [Compound 225, 5-Chloro-N-(3-(5-(furan-2-yl)-1,3,4-oxadiazol-2-yl)phenyl)-2-(2,2,2-trifluoroethoxy)benzamide], for which the “% inh @ 1 μM” value was found to be 97% and the inhibition at 1 µM came out at 92%. Besides, under setting [1], the 50% inhibitory concentration (IC50) was 0.1 µM.

For the compound `O=C(Nc1cccc(-c2nnc(-c3ccco3)o2)c1)c1cc(Br)ccc1OCC(F)(F)F` [Compound 226, 5-Bromo-N-(3-(5-(furan-2-yl)-1,3,4-oxadiazol-2-yl)phenyl)-2-(2,2,2-trifluoroethoxy)benzamide], the “% inh @ 1 μM” value was found to be 99% and the inhibition at 1 µM turned out to be 100%. Moreover, under setting [1], the IC50 came to 0.06 µM.

For the compound `O=C(Nc1cccc(-c2nnc(-c3ccco3)o2)c1)c1cccc2ccoc12` [Compound 227], the “% inh @ 1 μM” value is recorded as 89% and the inhibition at 1 µM was 85%. For the same compound, under setting [1], the IC50 turned out to be 0.16 µM.

As to `O=C(Nc1cccc(-c2nnc(-c3ccco3)o2)c1)c1cc(F)ccc1OCC(F)(F)F` [Compound 228, 5-Fluoro-N-(3-(5-(furan-2-yl)-1,3,4-oxadiazol-2-yl)phenyl)-2-(2,2,2-trifluoroethoxy)benzamide], the “% inh @ 1 μM” value came to 99% and testing at 1 µM gave an inhibition of 100%. Moreover, the IC50 under setting [1] came out at 0.072 µM.

Take `O=C(Nc1cc(Cl)ccc1F)c1cccc(-c2nnc(-c3ccco3)o2)c1` [Compound 229]: the “% inh @ 1 μM” value is on record as 97/97% and the inhibition at 1 µM came to 97%. Further, the IC50 under setting [1] came out at 0.17 µM.
